Data published in publication PMC7932537, “Quantitative profiling of protease specificity” (PLoS Computational Biology, 2021).

Legend:
MMP-2 [1] = test: Substrate phage display with NGS: relative probability (RP) of P3-P1' tetramer clusters; type: biochemical, human; conditions: MMP2;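 note: ratio of tetramer probability after protease selection to that in naive phage library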
MMP-2 [2] = target: T1, MMP-2 (Homo sapiens, UniProt P08253); test: K(obs) of individual phage substrates (set of 1369); type: biochemical; conditions: MMP2
T1 sequence (P08253 110-660): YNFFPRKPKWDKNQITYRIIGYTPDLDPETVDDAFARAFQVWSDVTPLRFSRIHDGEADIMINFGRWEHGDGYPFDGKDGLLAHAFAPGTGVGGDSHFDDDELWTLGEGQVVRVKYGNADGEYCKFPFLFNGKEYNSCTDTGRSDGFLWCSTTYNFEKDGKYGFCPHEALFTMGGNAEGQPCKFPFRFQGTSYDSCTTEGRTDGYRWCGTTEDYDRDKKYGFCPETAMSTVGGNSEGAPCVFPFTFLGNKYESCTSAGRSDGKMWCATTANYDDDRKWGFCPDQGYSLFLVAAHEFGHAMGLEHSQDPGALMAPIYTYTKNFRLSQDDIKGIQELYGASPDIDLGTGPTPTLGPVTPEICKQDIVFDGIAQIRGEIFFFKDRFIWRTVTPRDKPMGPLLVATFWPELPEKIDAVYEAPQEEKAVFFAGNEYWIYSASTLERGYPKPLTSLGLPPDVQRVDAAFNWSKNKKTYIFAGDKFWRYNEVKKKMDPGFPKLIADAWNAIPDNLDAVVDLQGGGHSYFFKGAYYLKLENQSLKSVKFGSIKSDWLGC

MMP-9 = MMP-9 (Homo sapiens, UniProt P14780); test: as above; type: biochemical; conditions: MMP9
[3] = RP of the P3-P1' tetramer contained in the substrate (substrate phage display with NGS)
[4] = individual phage substrates, set of 1369 peptides, cleavage position marked by hyphen in sequence
[5] = individual phage substrates, set of 1369 peptides, hyphen in sequence marks cleavage position
[6] = RP of the P3-P1' tetramer contained in the substrate
[7] = individual phage substrate of the set of 1369 peptides, cleavage position marked by '-'
[8] = individual phage substrate of the set of 1369 peptides, dash in the sequence marks the cleavage position

Chain of MMP-9 (P14780 94-707): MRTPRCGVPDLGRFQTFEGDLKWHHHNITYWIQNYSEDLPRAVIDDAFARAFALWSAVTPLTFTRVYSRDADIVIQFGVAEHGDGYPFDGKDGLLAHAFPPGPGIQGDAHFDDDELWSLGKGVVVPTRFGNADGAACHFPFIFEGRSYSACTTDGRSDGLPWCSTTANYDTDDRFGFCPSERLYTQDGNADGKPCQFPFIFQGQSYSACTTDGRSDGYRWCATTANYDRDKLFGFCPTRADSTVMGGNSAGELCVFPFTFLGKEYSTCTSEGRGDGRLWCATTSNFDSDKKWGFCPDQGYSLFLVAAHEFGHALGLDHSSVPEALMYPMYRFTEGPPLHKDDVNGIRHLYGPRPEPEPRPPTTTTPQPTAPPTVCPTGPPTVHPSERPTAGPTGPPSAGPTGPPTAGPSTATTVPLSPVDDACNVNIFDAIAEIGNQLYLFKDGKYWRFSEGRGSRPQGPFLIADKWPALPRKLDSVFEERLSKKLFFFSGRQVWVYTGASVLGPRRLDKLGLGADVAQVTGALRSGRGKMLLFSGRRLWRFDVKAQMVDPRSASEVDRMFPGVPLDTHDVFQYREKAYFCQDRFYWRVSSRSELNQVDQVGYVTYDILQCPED

Substance	relative probability (RP) (MMP-2 [1]; [3])	Kobs (MMP-2 [2]; [4]) [M⁻¹ s⁻¹]	Kobs (MMP-9; [5]) [M⁻¹ s⁻¹]	relative probability (RP) (MMP-2 [1]; [6])	Kobs (MMP-2 [2]; [7]) [M⁻¹ s⁻¹]	Kobs (MMP-9; [8]) [M⁻¹ s⁻¹]
TTPSW-LTASG	35.705	9740.44	12792.1			
GGPIP-LWTAS	33.1236	4763.33	12792.1			
AVLSN-LTASG	32.5007	8321.48	261.974			
YYPRA-LTASG				35.2345	12792.1	12792.1
ISVNY-LTASG	8.427	3637.04	323.705			
RKPAP-WTASG				31.7353	8321.48	3253.29
TTHYS-LTASG	0.1694	0	142.481			
GDPYG-MRTAS				27.2726	3850.82	4922.1
PKFSH-MTASG	11.0227	1030.73	0			
SGAHG-LLLTA				23.6336	517.582	1071.29
QGPWH-ITASG				10.946	4205.91	12792.1
VKVFS-MTASG	2.265	912.511	4470.66			
SGPFY-LRNTA	17.7778	2038.8	7815.03			
IAFSQ-LTASG	9.065	6688.74	0			
GEVRF-LRTAS				15.0438	9740.44	2837.92
SGARS-LKGTA	17.186	9740.44	12792.1			
DKLAS-LTASG				31.1996	12792.1	0
GGSGH-LLGMS				1.458	2097.28	690.17
SGVFW-MRGTA	10.3215	3438.54	5461.43			
HGLWS-LTASG	8.3838	2097.28	1071.29			
FSARS-LTASG	17.186	8941.32	4613.14			
NTPNW-LTASG	26.5667	10866.7	6131.32			

Substance	relative probability (RP) (MMP-2 [1]; [3])	Kobs (MMP-2 [2]; [4]) [M⁻¹ s⁻¹]	Kobs (MMP-9; [5]) [M⁻¹ s⁻¹]	relative probability (RP) (MMP-2 [1]; [6])	Kobs (MMP-2 [2]; [7]) [M⁻¹ s⁻¹]	Kobs (MMP-9; [8]) [M⁻¹ s⁻¹]
WMPLG-MTASG				34.1118	5461.43	12792.1
VSLAY-LTASG	25.3422	12792.1	113.394			
KSPVF-LTASG				21.7568	9740.44	6688.74
FPGRH-LTASG				3.598	1239.69	484.315
RMLAQ-LTASG	25.841	12792.1	113.394			
GVIRF-LRTAS				12.1004	10866.7	9740.44
GISFA-LTTAS	0.5631	0	27.918			
GYARL-LRTAS				1.104	484.315	690.17
GSMNS-LRTAS				18.7113	3741.87	874.197
SGVYS-LIKTA	16.838	27.918	836.403			
GVVRG-LSTAS				29.092	9740.44	4613.14
RILGY-LTASG	24.8925	12792.1	292.668			
GSGQH-LRKST	1.164	171.876	0			
SGSRA-LTASG				12.4506	2097.28	951.362
GGPRS-LFTAS				33.3704	12792.1	12792.1
GVLYH-LQTAS	4.529	171.876	292.668			
SIVRM-LTASG	15.9125	7386.83	4335.13			
PSWRA-LTASG				22.4074	10866.7	4470.66
GMVFS-IYTAS				0.2237	690.17	2097.28
SPPLA-LTASG	34.4921	10866.7	10866.7			
AAWAS-ITASG				12.5247	6396.07	0
GTLMG-LYTAS				28.5499	7015.91	171.876
